Experimental data taken from US20250388605A1, “HETEROBIFUNCTIONAL COMPOUNDS AND METHODS OF TREATING DISEASE” (Halda Therapeutics OpCo, Inc., priority 2022, published 2025).

Tests used:
androgen receptor = biological target: T1, androgen receptor (Homo sapiens, UniProt P10275); test: Assay for binding affinity to androgen receptor ([3H]methyltrienolone radioligand competition, cell cytosol); settings: binding to the androgen receptor, 1 nM [3H]methyltrienolone, 24 hr at 4° C.
T1 construct: host or cells: unnamed cells, cytosolic fraction
T1 sequence (P10275 1-920): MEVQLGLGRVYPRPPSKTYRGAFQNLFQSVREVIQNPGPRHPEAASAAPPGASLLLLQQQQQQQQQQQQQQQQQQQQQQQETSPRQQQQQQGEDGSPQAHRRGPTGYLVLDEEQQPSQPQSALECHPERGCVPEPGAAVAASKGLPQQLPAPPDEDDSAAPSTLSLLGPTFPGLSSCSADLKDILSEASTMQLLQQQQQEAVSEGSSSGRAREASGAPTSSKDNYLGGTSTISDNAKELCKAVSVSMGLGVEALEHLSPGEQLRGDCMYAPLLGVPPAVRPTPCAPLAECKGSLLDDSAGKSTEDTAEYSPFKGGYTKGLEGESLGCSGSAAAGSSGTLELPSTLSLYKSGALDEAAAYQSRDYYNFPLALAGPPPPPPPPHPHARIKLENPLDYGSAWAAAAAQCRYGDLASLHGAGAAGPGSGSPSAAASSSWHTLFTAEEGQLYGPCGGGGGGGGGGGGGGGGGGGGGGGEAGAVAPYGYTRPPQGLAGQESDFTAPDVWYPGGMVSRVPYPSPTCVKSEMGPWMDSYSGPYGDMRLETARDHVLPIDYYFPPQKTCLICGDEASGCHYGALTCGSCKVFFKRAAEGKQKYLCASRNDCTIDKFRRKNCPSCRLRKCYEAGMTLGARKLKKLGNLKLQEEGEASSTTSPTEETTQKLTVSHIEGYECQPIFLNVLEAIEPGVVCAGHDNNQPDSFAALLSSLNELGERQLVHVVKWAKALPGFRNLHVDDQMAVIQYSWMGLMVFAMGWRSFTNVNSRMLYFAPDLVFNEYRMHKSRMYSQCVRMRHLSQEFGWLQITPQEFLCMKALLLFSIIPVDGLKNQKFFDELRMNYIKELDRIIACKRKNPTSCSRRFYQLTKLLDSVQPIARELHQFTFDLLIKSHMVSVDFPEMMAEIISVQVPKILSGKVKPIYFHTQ
Procedure: Fractions of cell cytosol ([…]) were incubated for 24 hr at 4° C. with 1 nM [^3H]methyltrienolone in the absence or presence of the test compound in a buffer containing 25 mM Hepes-Tris (pH 7.4), 1 mM EDTA, 10 mM Na2MoO4, 2 mM DTT, 5 μM triamcinolone acetonide, and 10% glycerol. Nonspecific binding was determined in the presence of […] testosterone. Following incubation, the samples were filtered rapidly under vacuum through glass fiber filters (GF/B, Packard) presoaked with 0.3% PEI and rinsed several times with ice-cold 50 mM Tris-HCl using a 96-sample cell harvester (Unifilter, Packard). The filters were dried then counted for radioactivity in a scintillation counter (Topcount, Packard) using a scintillation cocktail (Microscint 0, Packard). The results are expressed as a percent inhibition of the control radioligand specific binding. The standard reference compound is testosterone, which is tested in each experiment at several concentrations to obtain a competition curve from which its IC50 is calculated.

[1] = test system: T-Rex 293 cell line SC3 cells having increased expression of androgen receptor protein due to exposure to doxycycline; test: Cellular growth inhibition, T-Rex 293 SC3 cells with doxycycline (increased androgen receptor expression), CellTiter-Glo; assay type: cell-based; settings: T-Rex 293 SC3 cells with 10 ng/mL doxycycline (increased androgen receptor expression), 72 hours, CellTiter-Glo 2.0
Method in brief: (§1)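 Growth inhibition is measured in an inducible AR-expressing T-Rex 293 clone, SC3, cultured with or without 10 ng/mL doxycycline in hormone-depleted medium. Test compounds are applied for 72 hours. GI50 values derive from CellTiter-Glo 2.0 signal fitted by four-parameter regression.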

[2] = test system: T-Rex 293 cell line SC3 cells lacking increased expression of androgen receptor protein; test: Cellular growth inhibition, T-Rex 293 SC3 cells without doxycycline (no increased androgen receptor expression), CellTiter-Glo; assay type: cell-based; settings: T-Rex 293 SC3 cells not exposed to doxycycline (no increased androgen receptor expression), 72 hours
Method in brief: as §1

VCaP cells = test: Cellular growth inhibition assay for VCaP cells, CellTiter-Glo; assay type: cell-based, human; settings: 72 hours
Method in brief: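 GI50 values come from four-parameter curve fits of luminescence data normalized to a zero baseline. Compound, in medium with 0.5% DMSO, was added one day after plating and left for 72 h before CellTiter-Glo 2.0 addition.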

T47D cells = test: Cellular Growth Inhibition Assay for T47D Cells (CellTiter-Glo); assay type: cell-based, human; settings: 72 hours
Method in brief: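 GI50 values derive from four-parameter regression of CellTiter-Glo 2.0 luminescence, using zero luminescence as baseline. Human breast cancer T47D cells (3000/well; DMEM, 10% FBS, 0.2 units/mL insulin) were exposed for 72 h to compound dilutions at 0.5% DMSO, with dosing starting 24 h after seeding.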

[3] = biological target: T2, progesterone receptor ligand binding domain (GST-tagged PR LBD) (Homo sapiens, UniProt P06401); test: FP Assay for Binding Affinity to Progesterone Receptor (PolarScreen Progesterone Receptor Competitor Assay Kit); settings: fluorescence polarization, Fluormone tracer, 2 hours at room temperature
T2 construct: purchased Life Technologies A15905 or a15906
T2 sequence (P06401 679-913 limits assumed): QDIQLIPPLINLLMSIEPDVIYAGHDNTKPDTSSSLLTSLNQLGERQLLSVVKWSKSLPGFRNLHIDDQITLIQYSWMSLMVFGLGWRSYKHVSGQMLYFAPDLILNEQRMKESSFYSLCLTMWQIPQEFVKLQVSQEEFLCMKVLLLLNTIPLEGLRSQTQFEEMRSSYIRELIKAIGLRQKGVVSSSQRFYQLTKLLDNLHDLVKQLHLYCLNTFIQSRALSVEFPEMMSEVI
Procedure: Exemplary compounds were tested for ability to bind to the progesterone receptor ligand binding domain (LBD).
Compounds were tested using the PolarScreen™ Progesterone Receptor Competitor Assay Kit (Life Technologies Cat #A15905 or a15906), as per the manufacturer's instructions. Briefly, GST-tagged PR LBD, Fluormone tracer, and compound were mixed and incubated for 2 hours at room temperature in the dark. Following incubation, the plates were spun at 3000×g for 30 seconds, then sealed with an optical adhesive cover, and fluorescence polarization was measured using appropriate excitation and emission filters with an EnVision Plate Reader (Perkin Elmer). Compound concentration vs. mP value were plotted in Prism (GraphPad). A four-parameter non-linear regression curve fit was applied to dose-response data to determine the half-maximal inhibitory concentration (IC50) for each test compound.

| Ki (androgen receptor) | GI50 (VCaP cells; Homo sapiens) | GI50 (T47D cells; Homo sapiens) | IC50 [3] | GI50 (VCaP cells) | GI50 (T47D cells) | SMILES | GI50 [1] | GI50 [2] |
| --- | --- | --- | --- | --- | --- | --- | --- | --- |
| – | – | – | < 50 nM | < 500 nM | < 500 nM | Cn1cc(-c2cc(C(C)(C)O)ccc2Oc2ccc(F)c(OCCC3CC4(C3)CN(c3ncc(C(=O)N[C@H]5C(C)(C)[C@H](Oc6ccc(C#N)c(Cl)c6)C5(C)C)cn3)C4)c2F)c2cc[nH]c2c1=O [Compound I-225] | < 500 nM | < 500 nM |
| – | – | – | < 50 nM | 500 to 1500 nM | > 3000 nM | CC(C)N(CCN(C)C1CCN(c2ncc(C(=O)N[C@H]3C(C)(C)[C@H](Oc4ccc(C#N)c(Cl)c4)C3(C)C)cn2)CC1)c1cccc(Oc2ccc(C(C)(C)O)cc2-c2cn(C)c(=O)c3[nH]ccc23)c1F [Compound I-226] | < 500 nM | 500 to 1500 nM |
| – | – | – | < 50 nM | < 500 nM | < 500 nM | Cn1cc(-c2cc(C(C)(C)O)ccc2Oc2cccc(OCCN3CCN(c4ncc5c(n4)CN([C@H]4C(C)(C)[C@H](Oc6ccc(C#N)c(Cl)c6)C4(C)C)C5=O)CC3)c2F)c2cc[nH]c2c1=O [Compound I-227] | < 500 nM | < 500 nM |
| – | – | – | 50 to 500 nM | < 500 nM | < 500 nM | Cn1cc(-c2cc(C(C)(C)O)ccc2Oc2cccc(OCCN3CC4(C3)CN(c3ncc(C(=O)N[C@H]5C(C)(C)[C@H](Oc6ccc(C#N)c(Cl)c6)C5(C)C)cn3)C4)c2F)c2cc[nH]c2c1=O [Compound I-229] | < 500 nM | 500 to 1500 nM |
| – | < 500 nM | 500 to 1500 nM | > 2500 nM | – | – | Cn1cc(-c2cc(C(C)(C)O)ccc2Oc2ccc(OCC3CCN(c4ncc5c(n4)CN([C@H]4C(C)(C)[C@H](Oc6ccc(C#N)c(Cl)c6)C4(C)C)C5=O)CC3)cc2)c2cc[nH]c2c1=O [Compound I-233] | 500 to 1500 nM | > 3000 nM |
| – | – | – | 500 to 2500 nM | 500 to 1500 nM | < 500 nM | CCS(=O)(=O)c1ccc(Oc2cccc(CCCC3CCN(c4ncc(C(=O)N[C@H]5C(C)(C)[C@H](Oc6ccc(C#N)c(Cl)c6)C5(C)C)cn4)CC3)c2F)c(-c2cn(C)c(=O)c3[nH]ccc23)c1 [Compound I-245] | < 500 nM | > 3000 nM |

More lines, now with the values behind:

| SMILES | Ki (androgen receptor) | GI50 (VCaP cells; Homo sapiens) | GI50 (T47D cells; Homo sapiens) | IC50 [3] | GI50 (VCaP cells) | GI50 (T47D cells) | GI50 [1] | GI50 [2] |
| --- | --- | --- | --- | --- | --- | --- | --- | --- |
| CCS(=O)(=O)Nc1ccc(Oc2cccc(OCCOC3CCN(c4ccc(C(=O)N[C@H]5C(C)(C)[C@H](Oc6ccc(C#N)c(Cl)c6)C5(C)C)cc4)CC3)c2)c(-c2cn(C)c(=O)c3[nH]ccc23)c1 [Compound I-69, N-((1r, 3r)-3-(3-chloro-4-cyanophenoxy)-2,2,4,4-tetramethylcyclobutyl)-4-(4-(2-(3-(4-(ethylsulfonamido)-2-(6-methyl-7-oxo-6,7-dihydro-1H-pyrrolo[2,3-c]pyridin-4-yl)phenoxy)phenoxy)ethoxy)piperidin-1-yl)benzamide] | < 50 nM | < 500 nM | – | – | – | – | < 500 nM | < 500 nM |
| CCS(=O)(=O)Nc1ccc(Oc2cccc(OCCOC3CCN(c4ccc(C(=O)N[C@H]5C(C)(C)[C@H](Oc6ccc(C#N)c(Cl)c6)C5(C)C)nc4)CC3)c2)c(-c2cn(C)c(=O)c3[nH]ccc23)c1 [Compound I-72, N-((1r, 3r)-3-(3-chloro-4-cyanophenoxy)-2,2,4,4-tetramethylcyclobutyl)-5-(4-(2-(3-(4-(ethylsulfonamido)-2-(6-methyl-7-oxo-6,7-dihydro-1H-pyrrolo[2,3-c]pyridin-4-yl)phenoxy)phenoxy)ethoxy)piperidin-1-yl)picolinamide] | 50 to 500 nM | < 500 nM | – | – | – | – | < 500 nM | < 500 nM |
| CCS(=O)(=O)Nc1ccc(Oc2cccc(N3CC(C4CCN(c5ncc(C(=O)N[C@H]6C(C)(C)[C@H](Oc7ccc(C#N)c(Cl)c7)C6(C)C)cn5)CC4)C3)c2)c(-c2cn(C)c(=O)c3[nH]ccc23)c1 [Compound I-74] | – | < 500 nM | < 500 nM | > 2500 nM | – | – | < 500 nM | < 500 nM |
| CCS(=O)(=O)Nc1ccc(Oc2cccc(N(C)CCNC3CCN(c4ncc(C(=O)N[C@H]5C(C)(C)[C@H](Oc6ccc(C#N)c(Cl)c6)C5(C)C)cn4)CC3)c2)c(-c2cn(C)c(=O)c3[nH]ccc23)c1 [Compound I-83] | – | < 500 nM | < 500 nM | 50 to 500 nM | – | – | < 500 nM | > 3000 nM |
| CCS(=O)(=O)c1ccc(Oc2cccc(CCCOC3CC4(C3)CN(c3ccc(C(=O)N[C@H]5C(C)(C)[C@H](Oc6ccc(C#N)c(Cl)c6)C5(C)C)cn3)C4)c2F)c(-c2cn(C)c(=O)c3[nH]ccc23)c1 [Compound I-215] | – | < 500 nM | < 500 nM | > 2500 nM | – | – | < 500 nM | < 500 nM |
| CN(CCCCc1ccc(Oc2ccc(C(C)(C)O)cc2-c2cn(C)c(=O)c3[nH]ccc23)cc1)c1ncc(C(=O)N[C@H]2C(C)(C)[C@H](Oc3ccc(C#N)c(Cl)c3)C2(C)C)cn1 [Compound I-218] | – | 1500 to 3000 nM | 500 to 1500 nM | 50 to 500 nM | – | – | < 500 nM | 1500 to 3000 nM |
| Cn1cc(-c2cc(C(C)(C)O)ccc2Oc2cccc(OCCN3CCC34CN(c3ncc(C(=O)N[C@H]5C(C)(C)[C@H](Oc6ccc(C#N)c(Cl)c6)C5(C)C)cn3)C4)c2F)c2cc[nH]c2c1=O [Compound I-222] | – | < 500 nM | 500 to 1500 nM | 500 to 2500 nM | – | – | < 500 nM | 500 to 1500 nM |
| CC(C)N(CCOc1cccc(Oc2ccc(C(C)(C)O)cc2-c2cn(C)c(=O)c3[nH]ccc23)c1F)C1CCN(c2ncc(C(=O)N[C@H]3C(C)(C)[C@H](Oc4ccc(C#N)c(Cl)c4)C3(C)C)cn2)CC1 [Compound I-224] | – | < 500 nM | < 500 nM | 50 to 500 nM | – | – | < 500 nM | < 500 nM |
